Results: the supplement of paper PMC11061612

Experiments:
Assay in all cases: combination Emax (second highest fraction inhibited in the dose matrix, 72 h); higher = more inhibition; extreme values may be limits of the assay
[1] = tested on: NUGC-4 (Gastric Carcinoma)
Outline: (§1)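 After 24 hours at 37°C and 5% CO2 in 1536-well plates, cells in DMEM/F12 or RPMI plus 10% FBS received two-drug dose matrices for 72 hours. Viability came from CellTiter-Glo 2.0 luminescence and was scaled as inhibition, anchored at 0 by vehicle wells and at 1 by blank wells. Combination Emax is taken as the second-highest inhibition in the matrix, and Bliss excess as the observed combination effect less EA + EB − EA·EB, with EA and EB the single-agent effects.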

[2] = tested on: LNZTA3WT4 (Low Grade Glioma)
Outline: as §1

[3] = tested on: SNU-16 (Gastric Carcinoma)
Outline: as §1

[4] = tested on: ESS-1 (Other Solid Carcinomas)
Outline: as §1

[5] = tested on: HH (T-Cell Non-Hodgkin's Lymphoma)
Outline: as §1

[6] = tested on: LCLC-97TM1 (Non-Small Cell Lung Carcinoma)
Outline: as §1

[7] = tested on: GAMG (Glioblastoma)
Outline: as §1

[8] = tested on: BE2-M17 (Neuroblastoma)
Outline: as §1

[9] = tested on: OVCAR-5 (Ovarian Carcinoma)
Outline: as §1

[10] = tested on: BPH-1 (Non-Cancerous)
Outline: as §1

[11] = tested on: KYAE-1 (Esophageal Adenocarcinoma)
Outline: as §1

[12] = tested on: ALL-PO (B-Lymphoblastic Leukemia)
Outline: as §1

[13] = tested on: WSU-NHL (B-Cell Non-Hodgkin's Lymphoma)
Outline: as §1

[14] = tested on: MHH-CALL-2 (B-Lymphoblastic Leukemia)
Outline: as §1

[15] = tested on: BE-13 (T-Lymphoblastic Leukemia)
Outline: as §1

[16] = tested on: MPP-89 (Mesothelioma)
Outline: as §1

[17] = tested on: YAPC (Pancreatic Carcinoma)
Outline: as §1

[18] = tested on: EW-11 (Ewing's Sarcoma)
Outline: as §1

[19] = tested on: KMRC-20 (Kidney Carcinoma)
Outline: as §1

[20] = tested on: TGBC1TKB (Biliary Tract Carcinoma)
Outline: as §1

| SMILES | combination Emax [1] | combination Emax [2] | combination Emax [3] | combination Emax [4] | combination Emax [5] | combination Emax [6] | combination Emax [7] | combination Emax [8] | combination Emax [9] | combination Emax [10] | combination Emax [11] | combination Emax [12] | combination Emax [13] | combination Emax [14] | combination Emax [15] | combination Emax [16] | combination Emax [17] | combination Emax [18] | combination Emax [19] | combination Emax [20] |
| --- | --- | --- | --- | --- | --- | --- | --- | --- | --- | --- | --- | --- | --- | --- | --- | --- | --- | --- | --- | --- |
| COc1nnc2ccc(N3CCC(c4ccc(OCCN5CCN(C)C(=O)[C@H]5C)cc4)CC3)nn12 [AZD5153] + CC1(C)CCC(CN2CCN(c3ccc(C(=O)NS(=O)(=O)c4ccc(NCC5CCOCC5)c([N+](=O)[O-])c4)c(Oc4cnc5[nH]ccc5c4)c3)CC2)=C(c2ccc(Cl)cc2)C1 [Venetoclax] (first compound max 1 µM, 7x7, partner max 1 µM) | 0.567 | 0.344 | 0.731 | 0.63 | 0.406 | 0.685 | 0.436 | 0.621 | 0.514 | 0.745 | 0.0501 | 0.889 | 0.978 | 0.429 | 0.708 | 0.497 | 0.384 | 0.457 | 0.452 | 0.293 |
| COc1nnc2ccc(N3CCC(c4ccc(OCCN5CCN(C)C(=O)[C@H]5C)cc4)CC3)nn12 [AZD5153] + CCN(CCO)CCCOc1ccc2c(Nc3cc(CC(=O)Nc4cccc(F)c4)[nH]n3)ncnc2c1 [AZD2811] (first compound max 1 µM, 7x7, partner max 1 µM) | 0.557 | 0.457 | 0.868 | 0.809 | 0.485 | 0.764 | 0.609 | 0.644 | 0.545 | 0.844 | 0.0877 | 1 | 0.934 | 0.5 | 0.92 | 0.467 | 0.342 | 0.452 | 0.414 | 0.307 |
| COc1nnc2ccc(N3CCC(c4ccc(OCCN5CCN(C)C(=O)[C@H]5C)cc4)CC3)nn12 [AZD5153] + C[C@@H]1COCCN1C2=NC(=NC(=C2)C3(CC3)[S@](=N)(=O)C)C4=C5C=CNC5=NC=C4 [AZD6738] (first compound max 1 µM, 7x7, partner max 10 µM) | 0.652 | 0.809 | 0.98 | 0.949 | 0.491 | 0.87 | 0.682 | 0.92 | 0.744 | 0.831 | 0.263 | 0.987 | 0.99 | 0.932 | 0.985 | 0.604 | 0.529 | 0.692 | 0.775 | 0.508 |
| COc1nnc2ccc(N3CCC(c4ccc(OCCN5CCN(C)C(=O)[C@H]5C)cc4)CC3)nn12 [AZD5153] + Cc1c2c(nn1C)CSCc1cc(n(C)n1)CSc1cc(c3ccccc3c1)OCCCc1c(C(=O)O)n(C)c3c-2c(Cl)ccc13 [AZD5991] (first compound max 1 µM, 7x7, partner max 1 µM) | 0.652 | 0.441 | 1 | 0.898 | 1 | 0.733 | 0.425 | 0.847 | 0.496 | 0.86 | 0.0912 | 1 | 1 | 1 | 0.998 | 0.581 | 0.365 | 0.945 | 0.37 | 0.289 |
| COc1nnc2ccc(N3CCC(c4ccc(OCCN5CCN(C)C(=O)[C@H]5C)cc4)CC3)nn12 [AZD5153] + Cn1cnc2c(F)c(Nc3ccc(Br)cc3Cl)c(C(=O)NOCCO)cc21 [Selumetinib] (first compound max 1 µM, 7x7, partner max 10 µM) | 0.831 | 0.383 | 0.902 | 0.585 | 0.42 | 0.848 | 0.527 | 0.825 | 0.685 | 0.87 | 0.116 | 0.88 | 0.954 | 0.432 | 0.672 | 0.554 | 0.477 | 0.424 | 0.414 | 0.37 |
| Cc1c2c(nn1C)CSCc1cc(n(C)n1)CSc1cc(c3ccccc3c1)OCCCc1c(C(=O)O)n(C)c3c-2c(Cl)ccc13 [AZD5991] + C1CN(CCC1(C(=O)N[C@@H](CCO)C2=CC=C(C=C2)Cl)N)C3=NC=NC4=C3C=CN4 [Capivasertib] (first compound max 1 µM, 7x7, partner max 3 µM) | 0.215 | 0.237 | 0.996 | 0.366 | 0.928 | 0.32 | 0.477 | 0.966 | 0.215 | 0.469 | 0.334 | 1 | 0.9 | 1 | 0.38 | 0.268 | 0.149 | 0.897 | 0.223 | 0.292 |
| Cc1c2c(nn1C)CSCc1cc(n(C)n1)CSc1cc(c3ccccc3c1)OCCCc1c(C(=O)O)n(C)c3c-2c(Cl)ccc13 [AZD5991] + C=CCn1c(=O)c2cnc(Nc3ccc(N4CCN(C)CC4)cc3)nc2n1-c1cccc(C(C)(C)O)n1 [AZD1775] (first compound max 1 µM, partner max 1 µM) | 0.47 | 0.823 | 1 | 0.988 | 0.77 | 0.948 | 0.522 | 0.986 | 0.343 | 0.525 | 0.668 | 1 | 0.954 | 1 | 1 | 0.477 | 0.416 | 0.863 | 0.638 | 0.303 |
| Cc1c2c(nn1C)CSCc1cc(n(C)n1)CSc1cc(c3ccccc3c1)OCCCc1c(C(=O)O)n(C)c3c-2c(Cl)ccc13 [AZD5991] + CC1(C)CCC(CN2CCN(c3ccc(C(=O)NS(=O)(=O)c4ccc(NCC5CCOCC5)c([N+](=O)[O-])c4)c(Oc4cnc5[nH]ccc5c4)c3)CC2)=C(c2ccc(Cl)cc2)C1 [Venetoclax] (first compound max 1 µM, 7x7, partner max 1 µM) | 0.178 | 0.203 | 0.994 | 0.39 | 0.858 | 0.138 | 0.315 | 0.915 | 0.159 | 0.353 | 0.225 | 1 | 0.975 | 0.983 | 0.916 | 0.171 | 0.146 | 0.975 | 0.162 | 0.161 |
| Cc1c2c(nn1C)CSCc1cc(n(C)n1)CSc1cc(c3ccccc3c1)OCCCc1c(C(=O)O)n(C)c3c-2c(Cl)ccc13 [AZD5991] + CCN(CCO)CCCOc1ccc2c(Nc3cc(CC(=O)Nc4cccc(F)c4)[nH]n3)ncnc2c1 [AZD2811] (first compound max 1 µM, 7x7, partner max 1 µM) | 0.22 | 0.256 | 0.996 | 0.733 | 0.728 | 0.722 | 0.534 | 0.905 | 0.205 | 0.873 | 0.296 | 1 | 0.92 | 0.987 | 0.929 | 0.248 | 0.238 | 0.872 | 0.312 | 0.192 |
| Cc1c2c(nn1C)CSCc1cc(n(C)n1)CSc1cc(c3ccccc3c1)OCCCc1c(C(=O)O)n(C)c3c-2c(Cl)ccc13 [AZD5991] + CN(C)CCCOc1ccc(-c2ccc3ncc4c(c3c2)n(C2CCOCC2)c(=O)n4C)cn1 [AZD0156] (first compound max 1 µM, 7x7, partner max 1 µM) | 0.238 | 0.227 | 0.974 | 0.36 | 0.756 | 0.286 | 0.255 | 0.875 | 0.251 | 0.733 | 0.177 | 1 | 0.92 | 0.985 | 0.445 | 0.182 | 0.169 | 0.803 | 0.218 | 0.219 |
| Cc1c2c(nn1C)CSCc1cc(n(C)n1)CSc1cc(c3ccccc3c1)OCCCc1c(C(=O)O)n(C)c3c-2c(Cl)ccc13 [AZD5991] + C[C@@H](Nc1cc(F)cc(F)c1)c1cc(C(=O)N(C)C)cc2c(=O)cc(N3CCOCC3)oc12 [AZD8186] (first compound max 1 µM, 7x7, partner max 3 µM) | 0.374 | 0.232 | 0.986 | 0.372 | 0.87 | 0.221 | 0.585 | 0.92 | 0.267 | 0.461 | 0.209 | 1 | 0.987 | 0.989 | 0.384 | 0.22 | 0.182 | 0.906 | 0.262 | 0.377 |
| Cc1c2c(nn1C)CSCc1cc(n(C)n1)CSc1cc(c3ccccc3c1)OCCCc1c(C(=O)O)n(C)c3c-2c(Cl)ccc13 [AZD5991] + Cc1cc2ncnn2cc1Nc1ncc2c(n1)n(C1CCOCC1)c(=O)n2C [AZD7648] (first compound max 1 µM, 7x7, partner max 10 µM) | 0.279 | 0.318 | 0.999 | 0.407 | 0.71 | 0.385 | 0.382 | 0.9 | 0.256 | 0.409 | 0.194 | 1 | 0.952 | 1 | 0.406 | 0.343 | 0.248 | 0.837 | 0.295 | 0.319 |
